The values below come from paper PMC11110727, “Exploiting thiol-functionalized benzosiloxaboroles for achieving diverse substitution patterns – synthesis, characterization and biological evaluation of promising antibacterial agents” (RSC Medicinal Chemistry, 2024).

Values after ≈ are worked out from the molar mass of the structure shown. Where two headings read alike, the source gives them in different places.

One series has as its system K. pneumoniae ATCC 13883. The series is described as follows: Antibacterial activity: MIC/MBC, MIC with PAβN, disc-diffusion. The series is classed as cell-based, Klebsiella pneumoniae. The settings on record: Klebsiella pneumoniae, ATCC13883. The procedure, abridged:
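MICs were measured by CLSI broth microdilution in Mueller–Hinton II broth, with or without the efflux-pump inhibitor PAβN (20 μg mL^−1) and with 1 mM MgSO4 present. A reduction of at least 4-fold with PAβN was counted as significant. Disc diffusion followed EUCAST/CLSI, MBC followed CLSI, and compounds were dissolved in DMSO.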
On the technique in general: In agar diffusion tests the substance spreads into inoculated agar from a disc or well.

In the next series the test system is S. aureus ATCC 6538P. Kind of series: Antibacterial activity: MIC/MBC determination and disc-diffusion. It is filed as cell-based, Staphylococcus aureus. The note with it: for diameter of inhibition zone: disc-diffusion, — = zone not observed; for MIC / MBC: Staphylococcus aureus, ATCC6538P. The procedure, abridged:
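Antimicrobial susceptibility was assessed by agar disc diffusion and MIC assays per EUCAST and CLSI standards. Minimum bactericidal and fungicidal concentrations were established according to CLSI.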

Series [1] deals with S. aureus NMI 1991 K MRSA. Kind of series: Antibacterial activity against clinical MRSA: MIC/MBC. The series is classed as cell-based. The settings on record: Staphylococcus aureus. How it is done:
Direct antimicrobial activity was determined against the following standard strains: (1) Gram-positive cocci: methicillin-sensitive Staphylococcus aureus ATCC 6538P (MSSA), methicillin-resistant S. aureus subsp. aureus ATCC 43300 (MRSA), S. epidermidis ATCC 12228, Enterococcus faecium ATCC 6057, E. faecalis ATCC 29212, Bacillus subtilis ATCC 6633; (2) Gram-negative bacteria from Enterobacteriales order: Klebsiella pneumoniae ATCC 13883, Escherichia coli ATCC 25922, Enterobacter cloacae DSM 6234, Proteus mirabilis ATCC 12453, Serratia marcescens ATCC 13880; (3) Gram-negative non-fermentative rods: Acinetobacter baumannii ATCC 19606, Pseudomonas aeruginosa ATCC 27853, Stenotrophomonas maltophilia ATCC 12714, S. maltophilia ATCC 13637, Burkholderia cepacia ATCC 25416, Bordetella bronchiseptica ATCC 4617; (4) yeasts: Candida albicans ATCC 90028, C. krusei ATCC 6258, C. parapsilosis ATCC 22019, C. tropicalis (Castellani) Berkhout ATCC 750, C. tropicalis IBA 171, C. guilliermondii IBA 155, and Saccharomyces cerevisiae ATCC 9763. Moreover, 5 clinical strains of methicillin-resistant S. aureus were also included: NMI 664 K, NMI 1576 K, NMI 1712 K, NMI 1991 K, and NMI 2541 K. All strains were stored at −80 °C. Prior to testing, each bacterial strain was subcultured twice on tryptic soy agar TSA (bioMerieux) medium and yeast strains on Sabouraud dextrose agar (bioMerieux) for 24–48 h at 30 °C to ensure viability. The antimicrobial activity was evaluated as previously described[26] by the disc-diffusion method and the MIC determination assays according to the EUCAST (ref. [71] and [72]) and CLSI (ref. [53] and [73]) recommendations. Assessment of bactericidal (MBC) and fungicidal (MFC) activities was performed according to the CLSI recommendations.[54,74] The following reference agents were used: fluconazole (in the case of fungi), linezolid (for Gram-positive bacteria), and nitrofurantoin (for Gram-negative rods). The new benzosiloxaboroles were dissolved in DMSO (Sigma).

Series [2] has as its system Human normal lung fibroblasts MRC-5. The series is described as follows: MTT-based viability (cytotoxicity) assay. The settings on record: for IC50: Homo sapiens, MRC5, 48 h. Put shortly:
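MRC-5 pd30 human lung fibroblasts in supplemented MEME at 37 °C, 5% CO2; viability by MTT, absorbance 570 nm, triplicate, as percent of control cells. Selectivity index taken as IC50/MIC against S. aureus MRSA strains.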

Broadly, the MIC is the lowest concentration found to suppress growth. One may read the MBC as the lowest tested concentration that kills the bacteria rather than only halting them. What is called IC50 is the concentration that gives 50% inhibition. A higher IC50 goes with a need for much substance.

Turning to `CCOP(=O)(OCC)Sc1c(F)cc2c(c1F)[Si](C)(C)OB2O` [Compound 24, S-(5,7-Difluoro-3-hydroxy-1,1-dimethyl-1,3-dihydrobenzo[c][1,2,5]oxasilaborol-6-yl) O,O-diethyl phosphorothioate], the MIC with K. pneumoniae ATCC 13883 is over 400 mg/L; against S. aureus ATCC 6538P, 6.25 mg/L (≈ 16.4 µM); in series [1] (MRSA) it was 12.5 mg/L (≈ 32.7 µM). Besides, the “diameter of inhibition zone” value in the series on S. aureus ATCC 6538P (S. aureus ATCC 6538P) came to 32 mm. Also, the MBC with S. aureus ATCC 6538P (read-out: MBC (first MBC where Eagle effect)) was 12.5 mg/L (≈ 32.7 µM); with S. aureus ATCC 6538P (read-out: second MBC (Eagle effect)) it was over 400 mg/L; in series [1] (MRSA, read-out: MBC (first MBC where Eagle effect)), 12.5 mg/L (≈ 32.7 µM); in series [1] (MRSA, read-out: second MBC (Eagle effect)), over 400 mg/L. For the same compound, the “viability of MRC-5” value in series [2] (6.25 µg·mL−1, 48 h) was 95.5±1.4 % of control ± SD; in series [2] (12.5 µg·mL−1, 48 h), 83.9±0.1 % of control ± SD; in series [2] (25 µg·mL−1, 48 h), 81.6±2.6 % of control ± SD; in series [2] (50 µg·mL−1, 48 h), 78.2±3.0 % of control ± SD; in series [2] (100 µg·mL−1, 48 h) it was 73.0±4.0 % of control ± SD; in series [2] (200 µg·mL−1, 48 h), 76.5±3.8 % of control ± SD. The “viability of MRC-5” value in series [2] (400 µg·mL−1, 48 h) is 60.5±3.8 % of control ± SD. In addition, the IC50 in series [2] is over 400 mg/L.

As to `C[Si]1(C)OB(O)c2ccc(SC(=O)c3ccc(C(F)(F)F)cc3)c(F)c21` [Compound 25, S-(7-Fluoro-3-hydroxy-1,1-dimethyl-1,3-dihydrobenzo[c][1,2,5]oxasilaborol-6-yl) 4-(trifluoromethyl)benzothioate], the MIC in the series on K. pneumoniae ATCC 13883 (K. pneumoniae ATCC 13883, read-out: MIC) is over 50 mg/L; in the series on S. aureus ATCC 6538P (S. aureus ATCC 6538P, read-out: MIC), 12.5 mg/L (≈ 31.2 µM); in series [1] (NMI 1991 K MRSA, read-out: MIC), 25 mg/L (≈ 62.5 µM). For the same compound, the “diameter of inhibition zone” value in the series with S. aureus ATCC 6538P (S. aureus ATCC 6538P) was determined as 11 mm. Moreover, the MBC is 25 mg/L (≈ 62.5 µM) in the series with S. aureus ATCC 6538P (S. aureus ATCC 6538P, read-out: MBC (first MBC where Eagle effect)) and 50 mg/L (≈ 125 µM) in series [1] (NMI 1991 K MRSA, read-out: MBC (first MBC where Eagle effect)). This compound also came in with an IC50 in series [2] of 112 mg/L (≈ 279 µM).
